Laboratory results: patent US9387221B2, “SDF-1 binding nucleic acids and the use thereof in cancer treatment” (NOXXON Pharma AG, priority 2010, dated 2016)
Entries after “also recorded” stand apart in the source; their conditions may differ.

test system: biotinylated human D-SDF-1; experiment: Competitive pull-down binding assay; conditions: aptamer level; reference 192-A10-001
Experimental: In order to compare different D-SDF-1 binding aptamers, a competitive ranking assay was performed. For this purpose the most affine aptamer available was radioactively labeled (see above) and served as reference. […] An excess of de- and renatured non-labeled D-RNA aptamer variants was added to different concentrations (e.g. 2, 10, and 50 nM) with the labeled reference aptamer to parallel binding reactions. The aptamers to be tested competed with the reference aptamer for target binding, thus decreasing the binding signal in dependence of their binding characteristics.

Sequence	binding affinity in competitive pull-down binding assay vs. 192-A10-001
GCUAUGAAAGUAACAUGUCAAUGAAAGGUAACCAUAGC (aptamer; Made as D-RNA aptamer and L-RNA Spiegelmer, tested form not given here, further chemistry not given here) [192-H11]	Weaker binding affinity
GCUGCGAAAGCGACAUGUCAAUGAAAGGUAGCCGCAGC (aptamer; Made as D-RNA aptamer and L-RNA Spiegelmer, tested form not given here, further chemistry not given here) [192-D10]	much weaker binding affinity
GCUGUAAAAGUAACAAGUCAAUGAAAGGUAACUACAGC (aptamer; Made as D-RNA aptamer and L-RNA Spiegelmer, tested form not given here, further chemistry not given here) [192-E10]	Weaker binding affinity; also recorded: reduced binding affinity
GCUGUAAAAGUAACAUGUCAAUGAAAGGUAACUACAGC (aptamer; Made as D-RNA aptamer and L-RNA Spiegelmer, tested form not given here, further chemistry not given here) [192-C9]	Weaker binding affinity
GCUGUGAAAGCAACAUGUCAAUGAAAGGUAGCCACAGC (aptamer; Made as D-RNA aptamer and L-RNA Spiegelmer, tested form not given here, further chemistry not given here) [192-E9]	much weaker binding affinity
GCUGUGAAAGUAACAAGUCAAUGAAAGGUAACCACAGC (aptamer; Made as D-RNA aptamer and L-RNA Spiegelmer, tested form not given here, further chemistry not given here) [192-C10]	equal binding affinities; also recorded: equal binding affinity
GCUGUGAAAGUAACACGUCAAUGAAAGGUAACCACAGC (aptamer; Made as D-RNA aptamer and L-RNA Spiegelmer, tested form not given here, further chemistry not given here) [192-B11]	equal binding affinities; also recorded: equal binding affinity
GCUGUGAAAGUAACACGUCAAUGAAAGGUAACCGCAGC (aptamer; Made as D-RNA aptamer and L-RNA Spiegelmer, tested form not given here, further chemistry not given here) [192-F10]	Weaker binding affinity; also recorded: reduced binding affinity
GCUGUGAAAGUAACAUGUCAAUGAAAGGUAACCACAGC (aptamer; Made as D-RNA aptamer and L-RNA Spiegelmer, tested form not given here, further chemistry not given here) [192-G10]	Weaker binding affinity
GCUGUGAAAGUAACAUGUCAAUGAAAGGUAACCACUGC (aptamer; Made as D-RNA aptamer and L-RNA Spiegelmer, tested form not given here, further chemistry not given here) [192-G11]	Weaker binding affinity
GCUGUGAAAGUAACAUGUCAAUGAAAGGUAGCCGCAGC (aptamer; Made as D-RNA aptamer and L-RNA Spiegelmer, tested form not given here, further chemistry not given here) [192-H9]	much weaker binding affinity

same assay, conditions: compared with 190-A3-001

Sequence	binding affinity of derivatives of 190-A3-001
GGGGUUAGGGCUUAAAGUCGGCUGAUUCU (Made as D-RNA aptamer and L-RNA Spiegelmer, tested form not given here, further chemistry not given here) [190-A3-007]	very strong reduction of binding affinity

same assay, conditions: reference 191-D5-007

Sequence	binding affinity in competitive pull-down binding assay vs. 191-D5-007
GGCCGGGGUUAGGGCUAGAAGUCGGCCGGCC (chemistry not fully specified) [197-B2-006-31a]	the same as shown for 191-D5-007 and 197-B2-006
GGCGGGUUAGGGCUAGAAGUCGGCGCC (chemistry not fully specified) [191-D5-024]	reduced binding affinity
GGGCGGGUUAGGGCUAGAAGUCGGCGCCC (chemistry not fully specified) [191-D5-024-29b]	identical binding affinity to SDF-1 as 191-D5-007

same assay, conditions: reference 193-G2-001

Sequence	binding to human SDF-1 in comparison to 193-G2-001
GCGUGGUGUGAUCUAGAUGUAAUGGCUGAUCCUAGUCAGGGACGC (chemistry not fully specified) [193-D3-002]	reduced binding; also recorded: weaker binding affinities
GCGUGGUGUGAUCUAGAUGUAGAGGCUGAUCCUAGUCAGGUACGC (chemistry not fully specified) [193-B3-002]	reduced binding
GCGUGGUGUGAUCUAGAUGUAGUGGCUGAUCCUAGUCAGGUGCGC (chemistry not fully specified) [193-D2-002]	reduced binding; also recorded: weaker binding affinities
GCGUGGUGUGAUCUAGAUGUAGUGGCUGAUCCUAGUUAGGUACGC (chemistry not fully specified) [193-D1-002]	reduced binding

same assay, conditions: vs. 192-A10-001 and 192-A10-008

Sequence	binding affinity of derivatives of 192-A10-001 in competitive pull-down binding assay
GGCCAAAGCAACAUGUCAAUGAAAGGUAGCGGCC (aptamer; chemistry not given here) [192-A10-021]	weaker, much weaker or very much weaker binding affinity
GGGCAAAGCAACAUGUCAAUGAAAGGUAGCGCCC (aptamer; chemistry not given here) [192-A10-020]	weaker, much weaker or very much weaker binding affinity
GUGAAAGCAACAUGUCAAUGAAAGGUAGCCGC (chemistry not given here) [192-A10-004]	reduced binding affinity
GUGCAAAGCAACAUGUCAAUGAAAGGUAGCGCGC (aptamer; chemistry not given here) [192-A10-018]	weaker, much weaker or very much weaker binding affinity

same assay, conditions: vs. 193-G2-001 and 193-G2-012

Sequence	binding affinity of derivatives of 193-G2-001 and 193-C2-001 in competitive pull-down binding assay
GGCCGUGUGAUCUAGAUGUAUUGGCUGAUCCUAGUCAGGGGCC (chemistry not fully specified) [193-G2-016]	reduced binding affinity
GGGCGUGUGAUCUAGAUGUAUUGGCUGAUCCUAGUCAGGGCCC (chemistry not fully specified) [193-G2-015]	reduced binding affinity
GGUGUGAUCUAGAUGUAGUGGCUGAUCCUAGUCAGGU (Listed both as L-RNA Spiegelmer and D-RNA aptamer, further chemistry not given here) [193-C2-006]	reduced binding affinity
